From PubChem BioAssay AID1963869 (Molecular Pharmacology Branch, DTP, NCI, 2024)

System: KRAS patient-derived spheroids with HUVEC/MSC, viability
Test: Anticancer human tumor 323965-272-R-J2-PDC patient-derived pancreatic carcinoma cell line growth inhibition [KRAS2]
Conditions: for IC50: curve of first compound; for viability, T/C: stronger effect = lower value
From the text: Multicellular complex tumor spheroid response to RAS pathway inhibitors in combination with a targeted agents in patient-derived cell lines with oncogenic KRAS variants from multiple cancer types
A high-throughput screen of multi-cell type tumor spheroids was designed to identify active combinations of targeted small molecules and KRAS pathway inhibitors. Complex spheroids include a stromal component modeled by human endothelial cells (HUVEC) and fibroblasts modeled by human mesenchymal stem cells (MSCs). The concentration ranges selected for each drug and investigational agent were based upon clinically achievable concentrations if the clinical Cmax of the agent was known.
Compounds. The drugs and investigational agents: BI-3406 (NSC825286), BAY-293 (NSC824723), batoprotafib (TNO155; NSC825523), sotorasib (AMG 510; NSC818433), MRTX1257 (NSC819558), elimusertib (BAY 1895344; NSC800525), molibresib (GSK525762; NSC774829), temuterkib (LY3214996; NSC803410), venetoclax (NSC766270), alisertib (NSC759677), olaparib (NSC753686), talazoparib (NSC767125), erdafitinib (NSC781556), ipatasertib (NSC767898), cabozantinib (NSC761068), nintedanib (NSC756659), abemaciclib (NSC768073), docetaxel (NSC628503), trametinib (NSC758246), and sapanisertib (NSC764658) were obtained from the National Cancer Institute (NCI) Developmental Therapeutics Program Chemical Repository. The FDA-approved anticancer drug set is available from the Developmental Therapeutics Program. […] The stock solutions were prepared in dimethyl sulfoxide (DMSO, Sigma-Aldrich, St. Louis, MO, cat. D2650) at 800-fold the tested concentration and stored at -70 degrees C prior to their use. All drugs and investigational agents were tested over a range starting from a high concentration at or near the clinical Cmax and decreasing in half-log increments. If the clinical Cmax for an agent had not been determined, the highest concentration tested was 10 microM.
Cell Culture. All cells were maintained in an incubator at 37 degrees C and 5% CO2 with 95% humidity. The PDC lines were cultured according to standard operating procedures established by the NCI PDMR (https://pdmr.cancer.gov/sops/default.htm). Briefly, all PDCs were thawed and cultured in Matrigel-coated flasks prepared with a working solution of 1X Ham's F-12 nutrient mix, without supplementation (Invitrogen, Waltham, MA, cat. 11765054), 100 U/mL penicillin-streptomycin (Invitrogen, cat. 15140122), and 2.5% Matrigel (Corning Inc., Corning, NY, cat. 354248) for the first three passages. All PDCs were cultured in complete DMEM/F-12 media containing advanced DMEM/F-12 (Invitrogen, cat. 12634028), 4.9% defined fetal bovine serum, heat inactivated (HyClone Laboratories Inc., Logan, UT, cat. SH30070.03HI), 389 ng/mL hydrocortisone (Sigma-Aldrich, cat. H4001), 9.7 ng/mL human EGF recombinant protein (Invitrogen, cat. PHG0313), 23.4 microg/mL adenine (Sigma-Aldrich, cat. A2786), 97.3 U/mL penicillin-streptomycin (Invitrogen, cat. 15140122), 1.9 mM L-glutamine (Invitrogen, cat. 25030081), and 9.7 microM Y-27632 dihydrochloride (Tocris Bioscience, Bristol, United Kingdom, cat. 1254). The PDCs were cultured in complete DMEM/F12 media without 9.7 microM Y-27632 dihydrochloride for at least two passages prior to the screen. The established cell line HOP-62 was cultured in RPMI 1640 medium, HEPES (Invitrogen, cat. 22400105) with 10% defined fetal bovine serum (HyClone Laboratories Inc., cat. SH30070.03) and 2 mM L-glutamine (Invitrogen, cat. 25030081). The pooled donor HUVEC were cultured in endothelial cell growth medium 2 (PromoCell, Heidelberg, Germany, cat. C-22011) and the hMSC were cultured in mesenchymal stem cell growth medium 2 (PromoCell, cat. C-28009). For all experiments, HUVEC and hMSC were used at passages </=5, while the malignant cell lines were used at passages </=15. […]

[1] = second compound 0.1 µM, first compound 0.0316 µM
[2] = second compound 0.1 µM, first compound 0.1 µM
[3] = second compound 0.316 µM, first compound 0.0316 µM
[4] = second compound 0.316 µM, first compound 0.1 µM
[5] = second compound 1 µM, first compound 0.0316 µM
[6] = second compound 1 µM, first compound 0.1 µM
[7] = second compound 3.16 µM, first compound 0.0316 µM
[8] = second compound 3.16 µM, first compound 0.1 µM
[9] = second compound 10 µM, first compound 0.0316 µM
[10] = second compound 10 µM, first compound 0.1 µM
[11] = second compound 0.1 µM, first compound 0.316 µM
[12] = second compound 0.1 µM, first compound 1 µM
[13] = second compound 0.1 µM, first compound 3.16 µM
[14] = second compound 0.1 µM, first compound 10 µM
[15] = second compound 0.316 µM, first compound 0.316 µM
[16] = second compound 0.316 µM, first compound 1 µM
[17] = second compound 0.316 µM, first compound 3.16 µM
[18] = second compound 0.316 µM, first compound 10 µM
[19] = second compound 1 µM, first compound 0.316 µM
[20] = second compound 1 µM, first compound 1 µM
[21] = second compound 1 µM, first compound 3.16 µM
[22] = second compound 1 µM, first compound 10 µM
[23] = second compound 3.16 µM, first compound 0.316 µM
[24] = second compound 3.16 µM, first compound 1 µM
[25] = second compound 3.16 µM, first compound 3.16 µM
[26] = second compound 3.16 µM, first compound 10 µM
[27] = second compound 10 µM, first compound 0.316 µM
[28] = second compound 10 µM, first compound 1 µM
[29] = second compound 10 µM, first compound 3.16 µM
[30] = second compound 10 µM, first compound 10 µM
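Note: spheroids exposed to agents for 7 days.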
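Throughout, for viability, T/C: 100% = DMSO vehicle control viability.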

Structure (SMILES)	IC50 (second compound 0.1 µM)	IC50 (second compound 0.316 µM)	IC50 (second compound 1 µM)	IC50 (second compound 3.16 µM)	IC50 (second compound 10 µM)	viability, T/C [1]	viability, T/C [2]	viability, T/C [3]	viability, T/C [4]	viability, T/C [5]	viability, T/C [6]	viability, T/C [7]	viability, T/C [8]	viability, T/C [9]	viability, T/C [10]	viability, T/C [11]	viability, T/C [12]	viability, T/C [13]	viability, T/C [14]	viability, T/C [15]	further results
CN(C)C/C=C/C(=O)Nc1cc2c(Nc3ccc(F)c(Cl)c3)ncnc2cc1O[C@H]1CCOC1 + C=CC(=O)N1CCN(c2nc(=O)n(-c3c(C)ccnc3C(C)C)c3nc(-c4c(O)cccc4F)c(F)cc23)C(C)C1	0.00619 µM	0.00129 µM	0.00187 µM	0.00424 µM	0.00148 µM	43.1%	44%	41.8%	40.5%	37.8%	44.6%	40.5%	42.5%	45.7%	43.5%						viability, T/C (second compound 0.1 µM, first compound 0.000316 µM): 63.3%; viability, T/C (second compound 0.1 µM, first compound 0.001 µM): 50.9%; viability, T/C (second compound 0.1 µM, first compound 0.00316 µM): 49.6%; viability, T/C (second compound 0.1 µM, first compound 0.01 µM): 57.7%; viability, T/C (second compound 0.316 µM, first compound 0.000316 µM): 61.3%; viability, T/C (second compound 0.316 µM, first compound 0.001 µM): 50%; viability, T/C (second compound 0.316 µM, first compound 0.00316 µM): 47.3%; viability, T/C (second compound 0.316 µM, first compound 0.01 µM): 42.4%; viability, T/C (second compound 1 µM, first compound 0.000316 µM): 58.6%; viability, T/C (second compound 1 µM, first compound 0.001 µM): 54.2%; viability, T/C (second compound 1 µM, first compound 0.00316 µM): 50.5%; viability, T/C (second compound 1 µM, first compound 0.01 µM): 41.3%; viability, T/C (second compound 3.16 µM, first compound 0.000316 µM): 58.1%; viability, T/C (second compound 3.16 µM, first compound 0.001 µM): 58%; viability, T/C (second compound 3.16 µM, first compound 0.00316 µM): 50.1%; viability, T/C (second compound 3.16 µM, first compound 0.01 µM): 48%; viability, T/C (second compound 10 µM, first compound 0.000316 µM): 62.2%; viability, T/C (second compound 10 µM, first compound 0.001 µM): 53%; viability, T/C (second compound 10 µM, first compound 0.00316 µM): 44.6%; viability, T/C (second compound 10 µM, first compound 0.01 µM): 45.6%
COC(=O)c1ccc2c(C(=Nc3ccc(N(C)C(=O)CN4CCN(C)CC4)cc3)c3ccccc3)c(O)[nH]c2c1 + C=CC(=O)N1CCN(c2nc(=O)n(-c3c(C)ccnc3C(C)C)c3nc(-c4c(O)cccc4F)c(F)cc23)C(C)C1	1.16 µM	0.536 µM	0.243 µM	0.196 µM	< 0.0316 µM	53.3%	55.6%	56%	52.4%	57.9%	57.6%	58%	56.6%	43.1%	32.9%	53.7%	50.7%	42.6%	19%	52.6%	viability, T/C [16]: 46.8%; viability, T/C [17]: 28.4%; viability, T/C [18]: 16.6%; viability, T/C [19]: 48%; viability, T/C [20]: 28.2%; viability, T/C [21]: 21.4%; viability, T/C [22]: 16.8%; viability, T/C [23]: 46.4%; viability, T/C [24]: 27.9%; viability, T/C [25]: 22.1%; viability, T/C [26]: 13.8%; viability, T/C [27]: 29.6%; viability, T/C [28]: 18.8%; viability, T/C [29]: 17.8%; viability, T/C [30]: 12.5%
O=C(c1cc(Cc2n[nH]c(=O)c3ccccc23)ccc1F)N1CCN(C(=O)C2CC2)CC1 + C=CC(=O)N1CCN(c2nc(=O)n(-c3c(C)ccnc3C(C)C)c3nc(-c4c(O)cccc4F)c(F)cc23)C(C)C1	> 10 µM	7.45 µM	7.83 µM	> 10 µM	1.73 µM	64.6%	61.7%	67.1%	59.7%	60.8%	59.9%	64.2%	66.2%	48.3%	50.1%	62.9%	64.5%	64.7%	50.3%	61.3%	viability, T/C [16]: 55.9%; viability, T/C [17]: 55.3%; viability, T/C [18]: 46.7%; viability, T/C [19]: 59.2%; viability, T/C [20]: 61.7%; viability, T/C [21]: 60.3%; viability, T/C [22]: 39.2%; viability, T/C [23]: 61.1%; viability, T/C [24]: 61%; viability, T/C [25]: 58.7%; viability, T/C [26]: 46.2%; viability, T/C [27]: 60.3%; viability, T/C [28]: 55.6%; viability, T/C [29]: 45%; viability, T/C [30]: 32%
